# Measurements: publication PMC10120551, “Novel Glu-based pyrazolo[3,4-d]pyrimidine analogues: design, synthesis and biological evaluation as DHFR and TS dual inhibitors” (Journal of Enzyme Inhibition and Medicinal Chemistry, 2023)
# Legend:
# HCT-116 [1] = experiment: cells; details: Homo sapiens
# HCT-116 [2] = experiment: NCI one-dose screen (SRB); assay type: cell-based, human; details: HCT-116, Colon cancer; 10 µM single dose
# Experimental: (§1) The growth percentage (G%) and cell viability of the herein target compounds 6a–l, 7a,b, and 9a–c have been screened towards a full panel of 59 cancer cells at NCI’s Developmental Therapeutics Program (NCI-DTP, MD, USA)[21]. The submitted analogues were initially examined for preliminary in vitro anticancer activity using sulforhodamine B (SRB) assay at 10 µM as a single dose to evaluate cell growth and viability according to the procedure of Drug Evaluation Branch[22]^,[23].
# (§2) Different types of tumours – colon, NSCLC, leukaemia, CNS, renal, breast, ovarian, melanoma, and prostate cancers – were investigated as a full panel of 59 cell lines, and the attained results are cited in Figures S1–S17 (see Supplementary Material) where the value recorded is the growth relative to that of both the negative control and zero-time number of cells in which both growth inhibition (GI%; 0–100%) and lethality (L%; 0–100%) percentages can be identified. The growth inhibition means percentages (MGI%) for the examined target analogues towards the different treated 59 cancer cells were presented in Figure 2.
# (§3) The designed analogues were submitted to NCI-Chemotherapeutic Agents Repository (MD, USA) for screening on a panel of 59 cancer cell lines. All compounds were initially examined at 10 µM concentration (Single-Dose Screen), and then the most efficient analogue 6i was screened further at 0.01–100 µM (Five-Dose Screen). The screening procedures were performed according to NCI-Drug Evaluation Branch protocol using SRB protein assay, as described previously[21]^,[66]. The experimental procedures were detailed in the Supporting Information.
# HT29 = experiment: NCI one-dose screen (SRB); assay type: cell-based, human; details: HT29, Colon cancer; 10 µM single dose
# Experimental: as §1, §2, §3
# NCI-H226 = experiment: NCI one-dose screen (SRB); assay type: cell-based, human; details: NCI-H226, NSCLC; 10 µM single dose
# Experimental: as §1, §2, §3
# MCF7 [3] = experiment: NCI one-dose screen (SRB); assay type: cell-based, human; details: MCF7, Breast; 10 µM single dose
# Experimental: as §1, §2, §3
# MDA-MB-435 = experiment: NCI one-dose screen (SRB); assay type: cell-based, human; details: MDA-MB-435, Melanoma; 10 µM single dose
# Experimental: as §1, §2, §3
# RXF 393 = experiment: NCI one-dose screen (SRB); assay type: cell-based, human; details: RXF 393, Renal; 10 µM single dose
# Experimental: as §1, §2, §3
# BT-549 = experiment: NCI one-dose screen (SRB); assay type: cell-based, human; details: BT-549, Breast cancer; 10 µM single dose
# Experimental: as §1, §2, §3
# LOX IMVI = experiment: NCI one-dose screen (SRB); assay type: cell-based, human; details: Melanoma, 10 µM single dose
# Experimental: as §1, §2, §3
# HOP-62 = experiment: NCI one-dose screen (SRB); assay type: cell-based, human; details: HOP-62, NSCLC; 10 µM single dose
# Experimental: as §1, §2, §3
# SF-539 = experiment: NCI one-dose screen (SRB); assay type: cell-based, human; details: SF-539, CNS cancer; 10 µM single dose
# Experimental: as §1, §2, §3
# CCRF-CEM = experiment: NCI one-dose screen (SRB); assay type: cell-based, human; details: Leukaemia, 10 µM single dose
# Experimental: as §1, §2, §3
# A549/ATCC [4] = experiment: NCI one-dose screen (SRB); assay type: cell-based, human; details: NSCLC, 10 µM single dose
# Experimental: as §1, §2, §3
# U251 [5] = experiment: NCI one-dose screen (SRB); assay type: cell-based, human; details: U251, CNS cancer; 10 µM single dose
# Experimental: as §1, §2, §3
# SF-268 = experiment: NCI one-dose screen (SRB); assay type: cell-based, human; details: SF-268, CNS; 10 µM single dose
# Experimental: as §1, §2, §3
# SK-MEL-28 = experiment: NCI one-dose screen (SRB); assay type: cell-based, human; details: SK-MEL-28, Melanoma; 10 µM single dose
# Experimental: as §1, §2, §3
# RPMI-8226 = experiment: NCI one-dose screen (SRB); assay type: cell-based, human; details: RPMI-8226, Leukaemia; 10 µM single dose
# Experimental: as §1, §2, §3
# KM12 = details: KM12, Colon cancer; five-dose 0.01–100 µM
# A549/ATCC [6] = experiment: cells; details: Homo sapiens
# OVCAR-8 [7] = experiment: cells; details: Homo sapiens
# HL-60(TB) = experiment: cells; details: Homo sapiens
# SR = experiment: cells; details: Homo sapiens
# MCF7 [8] = experiment: cells; details: Homo sapiens
# OVCAR-8 [9] = details: OVCAR-8, Ovarian cancer; five-dose 0.01–100 µM
# K-562 [10] = experiment: cells; details: Homo sapiens
# U251 [11] = experiment: cells; details: Homo sapiens
# K-562 [12] = details: K-562, Leukaemia; five-dose 0.01–100 µM
# MDA-MB-468 = experiment: cells; details: Homo sapiens
# PC-3 = experiment: cells; details: Homo sapiens
# NCI-H23 = experiment: cells; details: Homo sapiens
structure (smiles),measurement,setting,value
CCOC(=O)CC[C@H](NC(=O)c1ccc(NC(=O)Cn2cnc3c(c(C)nn3-c3ccc(Br)cc3)c2=O)cc1)C(=O)OCC [Compound 6i],GI50,HCT-116 [1]; HCT-116,9.85 µM
same,CC50,"HCT-116 [1]; HCT-116, read-out: LC50",> 100 µM
same,GI%,HCT-116 [2],70.04%
same,GI%,HT29,59.90%
same,L% (lethality),NCI-H226,37.32%
same,GI%,MCF7 [3],97.72%
same,GI%,MDA-MB-435,57.10%
same,L% (lethality),RXF 393,22.73%
same,GI%,BT-549,66.64%
same,GI%,LOX IMVI,78.49%
same,L% (lethality),HOP-62,8.41%
same,GI%,SF-539,54.23%
same,GI%,CCRF-CEM,70.05%
same,GI%,A549/ATCC [4],71.36%
same,GI%,U251 [5],53.30%
same,GI%,SF-268,85.11%
same,GI%,SK-MEL-28,75.54%
same,GI%,RPMI-8226,53.52%
same,TGI,KM12,>100 µM
same,GI50,A549/ATCC [6]; A549,9.81 µM
same,CC50,"A549/ATCC [6]; A549, read-out: LC50",> 100 µM
same,GI50,OVCAR-8 [7]; OVCAR-8,8.17 µM
same,CC50,"OVCAR-8 [7]; OVCAR-8, read-out: LC50",> 100 µM
same,GI50,HL-60(TB); HL-60,> 100 µM
same,CC50,"HL-60(TB); HL-60, read-out: LC50",> 100 µM
same,GI50,SR,71 µM
same,CC50,SR; read-out: LC50,> 100 µM
same,GI50,MCF7 [8]; MCF7,3.93 µM
same,CC50,"MCF7 [8]; MCF7, read-out: LC50",59.4 µM
same,TGI,OVCAR-8 [9],>100 µM
same,GI50,K-562 [10]; K562,> 100 µM
same,CC50,"K-562 [10]; K562, read-out: LC50",> 100 µM
same,GI50,U251 [11]; U-251,13.2 µM
same,CC50,"U251 [11]; U-251, read-out: LC50",> 100 µM
same,TGI,K-562 [12],>100 µM
same,GI50,MDA-MB-468; MDA-MB-468,13.5 µM
same,CC50,"MDA-MB-468; MDA-MB-468, read-out: LC50",> 100 µM
same,GI50,PC-3; PC-3,5.79 µM
same,CC50,"PC-3; PC-3, read-out: LC50",47.7 µM
same,TGI,"full NCI 59 cell panel; HL-60(TB), CCRF-CEM, MOLT-4, K-562, SR, RPMI-8226, HCC-2998, HCT-15, HCT-116, KM12, U250, M14, UACC-257, OVCAR-8, SN12C, 786-0, T-47D, BT-549",more than 100 µM
same,Full panel MG-MID,"full NCI 59 cell panel; mean graph midpoint based on GI50, full NCI 59 cell panel",20.45 µM
same,GI50,NCI-H23; NCI-H23,7.64 µM
same,CC50,"NCI-H23; NCI-H23, read-out: LC50",82.1 µM
